Literature values in paper PMC10925453, “Selective Bias Virtual Screening for Discovery of Promising Antimalarial Candidates targeting Plasmodium N-Myristoyltransferase” (Research Square, 2024).

Legend:
Plasmodium NMT = system: Plasmodium NMT; parameters: method as in earlier work; conditions: ligand of the PDB structure, activity against Plasmodium NMT; ref PDB
human isoform 1 = conditions: no reference given

IC50 (human isoform 1) | SMILES | Ki (Plasmodium NMT)
– | Cc1nn(C)c(C)c1NS(=O)(=O)c1c(Cl)cc(-c2ccnc(N3CCNCC3)c2)cc1Cl [2YND] | 32 nM
60 ± 3 nM | Cc1nn(C)c(C)c1Cc1nnc(-c2sc3ccccc3c2OC2CCNCC2)o1 [2YNE, 2-(3-piperidin-4-yloxy-1-benzothiophen-2-yl)-5-[(1,3,5-trimethylpyrazol-4-yl)methyl]-1,3,4-oxadiazole] | 2.7 nM
